Test results published in ChEMBL document CHEMBL5126602, “Polo-like Kinase 1 Inhibitors in Human Cancer Therapy: Development and Therapeutic Potential” (J Med Chem, 2022).

Legend:
[1] = target: T1, Serine/threonine-protein kinase PLK2 (Homo sapiens, UniProt Q9NYY3); assay: Inhibition of 5-carboxyfluorescein-GPMQTSpTPKNG-OH peptide binding to C-terminal 6His-tagged human PLK2 (355 to 685 residues) PBD expressed in Rosetta BL21 (DE3) cells preincubated for 1 hrs with compound followed by peptide addition and measured immediately by fluorescence polarization assay
[2] = target: T1, Serine/threonine-protein kinase PLK2; assay: Inhibition of Myc-tagged PLK2 PBD (unknown origin) expressed in HEK293T cells using 5CF-GPMQTSpTPKNG-NH2 as substrate preincubated for 30 mins followed by substrate addition and measured after 30 mins by fluorescence polarization assay
[3] = target: T2, Serine/threonine-protein kinase PLK1 (Homo sapiens, UniProt P53350); assay: Inhibition of human PLK1 in the presence of ATP
[4] = test system: MV4-11; assay: Antiproliferative activity against human MV4-11 cells assessed as inhibition of cell growth incubated for 24 hrs by CCK-8 assay; format: functional, cell-based; conditions: MV4-11, 24 h
[5] = test system: LN-229; assay: Antiproliferative activity against human LN-229 cells assessed as reduction in cell viability incubated for 72 hrs; format: functional, cell-based; conditions: LN-229, 72 h
[6] = test system: HT-29; assay: Antiproliferative activity against human HT-29 cells assessed as reduction in cell viability incubated for 72 hrs; format: functional, cell-based; conditions: HT-29, 72 h
[7] = test system: A-431; assay: Antiproliferative activity against human A-431 cells assessed as reduction in cell proliferation incubated for 72 hrs; format: functional, cell-based; conditions: A-431, 72 h
[8] = test system: A549; assay: Antiproliferative activity against human A549 cells assessed as reduction in cell viability incubated for 72 hrs; format: functional, cell-based; conditions: A549, 72 h
[9] = test system: SKW 6.4; assay: Antiproliferative activity against human SKW 6.4 cells assessed as reduction in cell viability incubated for 72 hrs; format: functional, cell-based; conditions: SKW 6.4, 72 h
[10] = test system: MCF7; assay: Antiproliferative activity against human MCF7 cells assessed as reduction in cell proliferation incubated for 72 hrs; format: functional, cell-based; conditions: MCF7, 72 h
[11] = test system: PC-3; assay: Antiproliferative activity against human PC-3 cells assessed as reduction in cell viability incubated for 72 hrs; format: functional, cell-based; conditions: PC-3, 72 h
[12] = test system: Detroit 562; assay: Antiproliferative activity against human Detroit 562 cells assessed as reduction in cell viability incubated for 72 hrs; format: functional, cell-based; conditions: Detroit 562, 72 h
[13] = test system: U2OS; assay: Antiproliferative activity against human U2OS cells assessed as reduction in cell viability incubated for 72 hrs; format: functional, cell-based
[14] = test system: HCT-15; assay: Antiproliferative activity against human HCT-15 cells assessed as reduction in cell viability incubated for 72 hrs; format: functional, cell-based; conditions: HCT-15, 72 h
[15] = target: T2, Serine/threonine-protein kinase PLK1; assay: Inhibition of PLK1 in thymidine synchronized human HeLa cells using casein as substrate preincubated with compound for 13 hrs followed by substrate addition and measured after 12 to 36 hrs in the presence of [gamma33P]ATP by autoradiography based Western blot analysis; format: cell-based
[16] = test system: SK-OV-3; assay: Antiproliferative activity against human SK-OV-3 cells assessed as reduction in cell viability incubated for 72 hrs; format: functional, cell-based; conditions: SK-OV-3, 72 h
[17] = Solubility of the compound; format: physicochemical
[18] = Half-life in rat liver microsomes; format: ADME, Microsome
[19] = target: Serine/threonine-protein kinase PLK1 (Homo sapiens, UniProt P53350, T210D); assay: Inhibition of PLK1 T210D mutant kinase domain (unknown origin) using casein as substrate preincubated for 3 hrs followed by substrate addition and measured after 30 mins in the presence of ATP by ADP-Glo kinase assay
[20] = target: T2, Serine/threonine-protein kinase PLK1; assay: Inhibition of 5-carboxyfluoresceinGPMQSpTPLNG-OH peptide binding to human PLK1 (326 to 603 residues) PBD expressed in Rosetta BL21 (DE3) cells preincubated for 1 hrs with compound followed by peptide addition and measured immediately by fluorescence polarization assay
[21] = target: Serine/threonine-protein kinase PLK3 (Homo sapiens, UniProt Q9H4B4); assay: Inhibition of PLK3 (unknown origin) in the presence of ATP by ADP-Glo-kinase assay
[22] = target: T1, Serine/threonine-protein kinase PLK2; assay: Inhibition of PLK2 (unknown origin) in the presence of ATP by ADP-Glo-kinase assay
[23] = target: T2, Serine/threonine-protein kinase PLK1; assay: Inhibition of PLK1 (unknown origin) in the presence of ATP by ADP-Glo-kinase assay
[24] = target: T2, Serine/threonine-protein kinase PLK1; assay: Inhibition of PLK1 PBD (unknown origin) dependent binding
[25] = target: T2, Serine/threonine-protein kinase PLK1; assay: Inhibition of biotinylated PLHSpT peptide binding to n-terminal GST-tagged full length human PLK1 PBD preincubated with compound for 30 mins followed by peptide addition and measured after 1 hrs by time-resolved fluorescence energy transfer assay
[26] = test system: HeLa; assay: Antiproliferative activity against human HeLa cells assessed as inhibition of cell proliferation incubated for 72 hrs by MTT assay; format: functional, cell-based
[27] = target: T2, Serine/threonine-protein kinase PLK1; assay: Inhibition of biotin labelled PoloBoxtide binding to GST/His-fused full length PLK1 (unknown origin) expressed in baculovirus infected Sf9 cells

T2 sequence (P53350 whole entry): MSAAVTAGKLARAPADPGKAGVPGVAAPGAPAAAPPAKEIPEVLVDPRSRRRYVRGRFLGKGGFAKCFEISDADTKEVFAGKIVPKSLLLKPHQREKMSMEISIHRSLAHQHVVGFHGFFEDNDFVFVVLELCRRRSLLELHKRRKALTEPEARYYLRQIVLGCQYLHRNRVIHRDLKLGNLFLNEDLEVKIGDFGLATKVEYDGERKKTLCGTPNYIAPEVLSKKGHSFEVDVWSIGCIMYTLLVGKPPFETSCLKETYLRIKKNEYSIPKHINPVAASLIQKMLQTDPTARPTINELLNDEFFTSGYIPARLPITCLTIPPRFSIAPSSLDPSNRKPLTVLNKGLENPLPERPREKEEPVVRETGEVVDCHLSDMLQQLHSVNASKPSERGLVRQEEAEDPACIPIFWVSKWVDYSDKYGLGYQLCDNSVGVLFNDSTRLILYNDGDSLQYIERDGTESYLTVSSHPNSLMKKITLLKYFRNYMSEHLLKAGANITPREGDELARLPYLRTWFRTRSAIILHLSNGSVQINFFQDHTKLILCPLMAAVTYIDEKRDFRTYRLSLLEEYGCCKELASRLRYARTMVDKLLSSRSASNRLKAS
T1 sequence (Q9NYY3 whole entry, the tested form may be a part): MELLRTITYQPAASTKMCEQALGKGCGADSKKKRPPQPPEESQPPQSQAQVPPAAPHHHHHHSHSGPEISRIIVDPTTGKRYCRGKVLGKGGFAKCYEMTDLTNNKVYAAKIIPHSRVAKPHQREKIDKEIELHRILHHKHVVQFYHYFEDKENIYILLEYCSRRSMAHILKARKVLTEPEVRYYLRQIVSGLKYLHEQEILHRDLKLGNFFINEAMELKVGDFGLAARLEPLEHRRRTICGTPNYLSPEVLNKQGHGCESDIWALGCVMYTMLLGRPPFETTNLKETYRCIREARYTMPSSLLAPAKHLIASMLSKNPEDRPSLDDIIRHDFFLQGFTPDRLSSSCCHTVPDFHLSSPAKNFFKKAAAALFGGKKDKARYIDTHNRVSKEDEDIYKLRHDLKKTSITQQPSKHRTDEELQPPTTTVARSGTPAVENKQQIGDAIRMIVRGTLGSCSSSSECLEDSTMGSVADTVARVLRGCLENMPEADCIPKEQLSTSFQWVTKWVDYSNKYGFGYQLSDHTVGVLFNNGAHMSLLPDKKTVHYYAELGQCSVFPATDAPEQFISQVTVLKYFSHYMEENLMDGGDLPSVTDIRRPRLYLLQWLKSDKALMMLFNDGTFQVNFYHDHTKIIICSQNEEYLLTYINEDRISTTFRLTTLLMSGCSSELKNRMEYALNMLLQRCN
Serine/threonine-protein kinase PLK3, sequence (Q9H4B4 whole entry): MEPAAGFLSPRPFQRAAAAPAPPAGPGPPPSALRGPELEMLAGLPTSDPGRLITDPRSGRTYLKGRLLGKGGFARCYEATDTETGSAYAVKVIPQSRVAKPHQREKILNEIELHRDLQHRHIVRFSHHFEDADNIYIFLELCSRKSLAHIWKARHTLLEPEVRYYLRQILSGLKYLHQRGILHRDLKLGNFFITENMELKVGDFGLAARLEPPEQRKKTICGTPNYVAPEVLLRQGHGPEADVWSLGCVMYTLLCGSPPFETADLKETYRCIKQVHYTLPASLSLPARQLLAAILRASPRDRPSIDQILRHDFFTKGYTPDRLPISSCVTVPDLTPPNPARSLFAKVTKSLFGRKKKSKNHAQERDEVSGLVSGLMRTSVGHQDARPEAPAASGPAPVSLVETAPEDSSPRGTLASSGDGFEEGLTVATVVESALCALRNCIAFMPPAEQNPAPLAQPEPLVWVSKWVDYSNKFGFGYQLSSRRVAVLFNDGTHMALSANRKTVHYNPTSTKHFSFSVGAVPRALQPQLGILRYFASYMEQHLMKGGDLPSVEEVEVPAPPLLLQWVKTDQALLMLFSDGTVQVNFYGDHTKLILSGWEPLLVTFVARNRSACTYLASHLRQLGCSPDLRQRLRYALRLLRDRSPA
Serine/threonine-protein kinase PLK1 (Homo sapiens, UniProt P53350, T210D), sequence (P53350 2-603 T210D limits assumed): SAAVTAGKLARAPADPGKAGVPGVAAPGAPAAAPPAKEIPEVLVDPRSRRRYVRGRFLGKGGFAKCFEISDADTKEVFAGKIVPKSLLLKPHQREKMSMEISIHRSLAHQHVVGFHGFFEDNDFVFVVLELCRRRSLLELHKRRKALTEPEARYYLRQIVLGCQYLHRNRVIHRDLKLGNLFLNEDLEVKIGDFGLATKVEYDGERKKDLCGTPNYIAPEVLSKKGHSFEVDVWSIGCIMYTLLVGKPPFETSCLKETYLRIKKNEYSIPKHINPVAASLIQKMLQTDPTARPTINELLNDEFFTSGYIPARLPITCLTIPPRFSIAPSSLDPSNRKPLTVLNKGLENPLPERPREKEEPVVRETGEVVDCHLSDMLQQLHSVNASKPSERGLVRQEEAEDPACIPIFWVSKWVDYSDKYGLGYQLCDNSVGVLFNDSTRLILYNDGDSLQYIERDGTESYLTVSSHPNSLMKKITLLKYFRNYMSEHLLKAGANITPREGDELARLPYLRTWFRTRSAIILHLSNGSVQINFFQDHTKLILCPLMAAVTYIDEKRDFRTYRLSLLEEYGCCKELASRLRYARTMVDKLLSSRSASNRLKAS

## CC1=CC(=O)C(C(C)C)=C/C1=N/OC(=O)c1ccccc1C
[1]
  IC50: 18.7 µM

## CC(=O)N1CCC[C@H]1C(=O)N[C@@H](CC(C)C)C(=O)N[C@@H](Cc1cn(CCCCCCCCc2ccccc2)nn1)C(=O)N[C@@H](CO)C(=O)N[C@H](C(N)=O)[C@@H](C)OP(=O)(O)O
[2]
  IC50: 0.69 µM

## C=CCn1c(=O)c2cnc(Nc3ccc(N4CCN(C)CC4)cc3)nc2n1-c1cccc(C(C)(C)O)n1 [ADAVOSERTIB]
[3]
  IC50: 0.015 µM

## CC[C@@H]1C(=O)N(C)c2cnc(Nc3ccc(C(=O)NCCOCCOCCNc4cccc5c4C(=O)N(C4CCC(=O)NC4=O)C5=O)cc3OC)nc2N1C1CCCC1 (stereo not given in full)
[4]
  IC50: 0.00448 µM

## COc1ccc(CCNCc2ccc(OCc3ccc(Cl)nc3)c(OC)c2)cc1OC
[5]
  EC50: 5 µM
[6]
  EC50: 5 µM
[7]
  EC50: 33 µM
[8]
  EC50: 5 µM
[9]
  EC50: 5 µM
[10]
  EC50: 12 µM
[11]
  EC50: 5 µM
[12]
  EC50: 5 µM
[13]
  EC50: 5 µM
[14]
  EC50: 5 µM
[15]
  EC50: 0.0002 µM
[16]
  EC50: 5 µM

## O=c1c2cc(F)ccc2n2c(=S)[nH]nc2n1CCc1ccccn1
[17]
  solubility: > 60 µg/mL
[18]
  half-life: > 30 min

## O=C(O)[C@H]1O[C@@H](Oc2cc3oc(-c4ccccc4)cc(=O)c3c(O)c2O)[C@H](O)[C@@H](O)[C@@H]1O [BAICALIN]
[19]
  IC50: 3.61 µM

## N#Cc1cccc(CN2C[C@@H]3C[C@H](C2)c2c(-c4ccc5ccccc5c4)ccc(=O)n2C3)c1
[20]
  IC50: 17.9 µM

## O=c1cc(-c2ccccc2)oc2cc(O)c(O)c(O)c12 [BAICALEIN]
[21]
  IC50: 40 µM
[22]
  IC50: 314 µM
[23]
  IC50: 9 µM

## O=C1C[C@@H](c2ccccc2)Oc2cc(O)c(O)c(O)c21
[21]
  IC50: 1600 µM
[22]
  IC50: 242 µM
[23]
  IC50: 6.3 µM

## CCCCCCCCCC1=CO[C@]2(C[C@H](C(=O)O)[C@@](CC(=O)O)(C(=O)O)O2)C1=O
[24]
  IC50: 128 µM

## COc1c2c(cc3c1C(CC(=O)c1ccccn1)[N+](C)(C)CC3)OCO2 (stereo not given)
[25]
  IC50: 2.1 µM
[26]
  IC50: 22.4 µM

## Cc1onc(-c2ccccc2)c1/C=C1\C(=O)Nc2ccccc21
[27]
  IC50: 20 µM
